Laboratory results reported in patent US7312188B2, “Peptide derivatives having β-secretase inhibitory activity” (priority 2003, dated 2007).

Target: T1, recombinant human BACE-1 (rhBACE-1) (Homo sapiens, UniProt P56817)
T1 construct: expressed as only an extracellular region (amino acid 1-460 residues) of recombinant human β-secretase; His tag (C); purchased R&D systems (Minneapolis, Minn.); host or cells: murine myeloma cell line NS0
Experiment: BACE1 inhibitory activity, reverse phase HPLC quantitation of N-terminal fragment of fluorogenic substrate
Format: biochemical
Conditions: 1 μL of inhibitor solution in DMSO (100 μM) in 50 μL reaction; MES buffer pH 5.0; 37° C., 60 minutes
Description: Experiment Regarding Measurement of BACE1 Inhibitory Activity
Enzyme Used in Measurement
As an enzyme having β-secretase activity, recombinant human BACE-1 (rhBACE-1) purchased from R&D systems (Minneapolis, Minn.) was used. rhBACE-1 is expressed as only an extracellular region (amino acid 1-460 residues) of recombinant human β-secretase, with a His tag at its carboxyl terminal in murine myeloma cell line, NS0. Purified secreted rhBACE1 is a mixture of a pro entity (about 75 kDa) and a mature entity (about 72 kDa).
Assessment of Enzyme Inhibitory Activity
Enzyme inhibitory activity of an inhibitor was assessed by quantitating an N-terminal fragment produced aftercleaving the substrate with BACE1 by reverse HPLC using (7-methoxycoumarin-4-yl)acetyl-[…]2,4-dinitrophenyl)-Arg-Arg-NH2 purchased from Peptide Institute (Osaka, Japan) as a substrate for BACE1. To 40 μL of 62.5 mM 2-(N-morpholino)ethansulfonic acid (MES)-CH3COOH—NaOH buffer (pH 5.0), were added 1 μL of a solution of an inhibitor diluted with DMSO (100 μM), 4 μL of rhBACE-1 (6.25 ng/μL), and 5 μL of an aqueous solution (50% DMSO) of 250 μM substrate (7-methoxycoumarin-4-yl)acetyl-[…]2,4-dinitrophenyl)-Arg-Arg-NH2 to initiate an enzyme reaction. After incubation at 37° C. for 60 minutes, 20 μL of 20% trichloroacetic acid was added to stop the reaction. And, inhibition % was calculated by measuring a fluorescent intensity of the N-terminal fragment (Ex, 328 nm; Em, 393 nm) using reverse phase HPLC (linear gradient of MeCN in aqueous TFA; flow rate, 1.0 mL/min).
BACE1 Inhibitory Activity
Enzyme inhibitory activity of an inhibitor was assessed by quantitating a N-terminal fragment produced after cleavage of a substrate with BACE1 by reverse phase HPLC using (7-methoxycoumarin-4-yl)acetyl-[…]2,4-dinitrophenyl)-Arg-Arg-NH2 purchased from Peptide Institute (Osaka, Japan) as a substrate for BACE1. Recombinant human BACE-1 purchased from R&D systems (Minneapolis, Minn.) was used. To 40 μL of 62.5 mM 2-(N-morpholino)ethansulfonic acid (MES)-CH3COOH—NaOH buffer (pH 5.0), were added 1 μL of a solution of an inhibitor diluted with DMSO (100 μM), 4 μL of BACE1 (6.25 ng/μL), and 5 μL of an aqueous solution (50% DMSO) of 250 μM substrate (7-methoxycoumarin-4-yl)acetyl-[…]2,4-dinitrophenyl)-Arg-Arg-NH2 to initiate an enzyme reaction. After incubation at 37° C. for 60 minutes, 20 μL of 20% trichloroacetic acid was added to stop a reaction. Inhibition % was calculated by measuring a fluorescent intensity of the N-terminal fragment (Ex, 328 nm; Em, 393 nm) using reverse phase HPLC (linear gradient of MeCN in aqueous TFA; flow rate, 1.0 mL/min).

T1 sequence (P56817 22-460 limits assumed): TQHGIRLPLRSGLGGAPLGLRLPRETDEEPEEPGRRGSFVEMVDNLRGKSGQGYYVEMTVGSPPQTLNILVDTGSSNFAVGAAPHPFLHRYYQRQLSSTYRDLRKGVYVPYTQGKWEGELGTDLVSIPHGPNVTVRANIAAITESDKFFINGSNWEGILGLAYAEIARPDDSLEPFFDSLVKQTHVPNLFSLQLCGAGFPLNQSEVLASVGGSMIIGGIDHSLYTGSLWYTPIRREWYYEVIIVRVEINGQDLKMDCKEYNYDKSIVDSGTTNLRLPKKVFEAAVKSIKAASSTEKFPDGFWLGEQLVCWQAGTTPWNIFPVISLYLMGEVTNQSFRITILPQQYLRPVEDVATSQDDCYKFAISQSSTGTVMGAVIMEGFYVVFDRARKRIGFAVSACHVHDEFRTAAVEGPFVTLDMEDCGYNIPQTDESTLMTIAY

| inhibition at 2 µM | Structure (SMILES) | inhibition at 100 µM (stock) |
| --- | --- | --- |
| 89.8% | CC(C)C[C@H](NC(=O)[C@@H](NC(=O)[C@@H](N)CNC(=O)c1cc(=O)[nH]c(=O)[nH]1)C(C)C)C(=O)N[C@@H](Cc1ccccc1)[C@@H](O)C(=O)Nc1cccc(C(=O)O)c1 [Example 142] |  |
| 69% | CC(C)C[C@H](NC(=O)[C@@H](NC(=O)[C@@H](N)CNC(=O)c1ccc[nH]1)C(C)C)C(=O)N[C@@H](Cc1ccccc1)[C@@H](O)C(=O)Nc1cccc(C(=O)O)c1 [Example 143] |  |
| 50.5% | Cc1c(O)cccc1C(=O)NC[C@H](N)C(=O)N[C@H](C(=O)N[C@@H](CC(C)C)C(=O)N[C@@H](Cc1ccccc1)[C@@H](O)C(=O)Nc1cccc(C(=O)O)c1)C(C)C [Example 145] |  |
| 59.5% | Cc1cccc(C(=O)NC[C@H](N)C(=O)N[C@H](C(=O)N[C@@H](CC(C)C)C(=O)N[C@@H](Cc2ccccc2)[C@@H](O)C(=O)Nc2cccc(C(=O)O)c2)C(C)C)c1O [Example 147] |  |
| 90.8% | CC(C)C[C@H](NC(=O)[C@@H](NC(=O)[C@@H](N)CNC(=O)c1cccc(O)c1)C(C)C)C(=O)N[C@@H](Cc1ccccc1)[C@@H](O)C(=O)Nc1cccc(C(=O)O)c1 [Example 150] |  |
| 69.9% | CC(C)C[C@H](NC(=O)[C@@H](NC(=O)[C@@H](N)CNC(=O)c1ccc(O)cc1)C(C)C)C(=O)N[C@@H](Cc1ccccc1)[C@@H](O)C(=O)Nc1cccc(C(=O)O)c1 [Example 154] |  |
| 64.7% | CCC[C@H](NC(=O)[C@@H](NC(=O)[C@@H](N)CCC(=O)O)C(C)C)C(=O)N[C@@H](Cc1ccccc1)[C@@H](O)C(=O)Nc1cccc(C(=O)O)c1 [Example 161] |  |
| 84.9% | CC(C)[C@H](NC(=O)[C@@H](N)CCC(=O)O)C(=O)N[C@@H](CCc1ccccc1)C(=O)N[C@@H](Cc1ccccc1)[C@@H](O)C(=O)Nc1cccc(C(=O)O)c1 [Example 166] |  |
| 60% | CC(C)[C@H](NC(=O)[C@@H](N)CCC(=O)O)C(=O)N[C@@H](Cc1ccc(Cl)cc1)C(=O)N[C@@H](Cc1ccccc1)[C@@H](O)C(=O)Nc1cccc(C(=O)O)c1 [Example 168] |  |
| 61.6% | CC(C)C[C@H](NC(=O)[C@@H](NC(=O)[C@@H](N)CCC(=O)O)c1ccccc1)C(=O)N[C@@H](Cc1ccccc1)[C@@H](O)C(=O)Nc1cccc(C(=O)O)c1 [Example 169] |  |
| 91.8% | CC(C)C[C@H](NC(=O)[C@@H](NC(=O)[C@@H](N)CNC(=O)c1cc(N)cc(C(=O)O)c1)C(C)C)C(=O)N[C@@H](Cc1ccccc1)[C@@H](O)C(=O)Nc1cccc(C(N)=O)c1 [Example 171] |  |
| 89.5% | CC(C)C[C@H](NC(=O)[C@@H](NC(=O)[C@@H](N)CNC(=O)c1cccc(O)c1O)C(C)C)C(=O)N[C@@H](Cc1ccccc1)[C@@H](O)C(=O)Nc1cccc(C(=O)O)c1 [Example 172] |  |
| 81.8% | CC(C)C[C@H](NC(=O)[C@@H](NC(=O)[C@@H](N)CNC(=O)c1ccco1)C(C)C)C(=O)N[C@@H](Cc1ccccc1)[C@@H](O)C(=O)Nc1cccc(C(=O)O)c1 [Example 174] |  |
| 98.5% | CC(C)C[C@H](NC(=O)[C@@H](NC(=O)[C@@H](N)CNC(=O)c1cc(N)cc(C(=O)O)c1)C(C)C)C(=O)N[C@@H](CSc1ccccc1)[C@@H](O)C(=O)Nc1cccc(C(=O)O)c1 [Example 177] |  |

The next lines start with the compound.

| Structure (SMILES) | inhibition at 2 µM | inhibition at 100 µM (stock) |
| --- | --- | --- |
| CC(C)[C@H](NC(=O)[C@@H](N)CNC(=O)c1nnn[nH]1)C(=O)N[C@@H](CC1CCCCC1)C(=O)N[C@@H](Cc1ccccc1)[C@@H](O)C(=O)Nc1cc(C(=O)O)cc(C(=O)O)c1 [Example 135] | 99.8% |  |
| CC(C)[C@H](NC(=O)[C@@H](N)CNC(=O)c1nnn[nH]1)C(=O)N[C@@H](CC1CCCCC1)C(=O)N[C@@H](Cc1ccccc1)[C@@H](O)C(=O)Nc1cccc(C(=O)O)c1 [Example 137] | 99.5% |  |
| CC(C)C[C@H](NC(=O)[C@@H](NC(=O)[C@@H](N)CCC(=O)O)C(C)C)C(=O)N[C@@H](Cc1ccccc1)[C@@H](O)C(=O)Nc1cccc(C(=O)OCC(F)(F)F)c1 [Example 138] | 59.6% |  |
| CCCC[C@H](NC(=O)[C@@H](NC(=O)[C@@H](N)CCC(=O)O)C(C)C)C(=O)N[C@@H](Cc1ccccc1)[C@@H](O)C(=O)Nc1cccc(C(=O)O)c1 [Example 141] | 67.5% |  |
| CC(C)C[C@H](NC(=O)[C@@H](NC(=O)C(N)CNC(=O)c1ccccc1O)C(C)C)C(=O)N[C@@H](Cc1ccccc1)[C@@H](O)C(=O)Nc1cccc(C(=O)O)c1 (some centres unmarked) [Example 146] |  | 74.7% |
| CC(C)C[C@H](NC(=O)[C@@H](NC(=O)[C@@H](N)CNC(=O)c1cc(O)cc(O)c1)C(C)C)C(=O)N[C@@H](Cc1ccccc1)[C@@H](O)C(=O)Nc1cccc(C(=O)O)c1 [Example 148] |  | 93.8% |
| CC(C)C[C@H](NC(=O)[C@@H](NC(=O)[C@@H](N)CCC(=O)O)C(C)C)C(=O)N[C@@H](Cc1ccccc1)[C@@H](O)C(=O)Nc1cc(Cl)c(O)c(Cl)c1 [Example 149] | 80.1% |  |
| CC(C)C[C@H](NC(=O)[C@@H](NC(=O)[C@@H](N)CCC(=O)O)C(C)(C)C)C(=O)N[C@@H](Cc1ccccc1)[C@@H](O)C(=O)Nc1cccc(C(=O)O)c1 [Example 151] | 57% |  |
| CC[C@H](C)[C@H](NC(=O)[C@@H](NC(=O)[C@@H](N)CCC(=O)O)C(C)C)C(=O)N[C@@H](Cc1ccccc1)[C@@H](O)C(=O)Nc1cccc(C(=O)O)c1 [Example 153] | 65.8% |  |
| CC(C)C[C@H](NC(=O)[C@@H](NC(=O)[C@@H](N)CCC(=O)O)C(C)C)C(=O)N[C@@H](Cc1ccccc1)[C@@H](O)C(=O)NC1CCCC(C(=O)O)C1 (some centres unmarked) [Example 155] |  | 69.7% |
| CC(C)C[C@H](NC(=O)[C@@H](NC(=O)[C@@H](N)CCC(=O)O)C(C)C)C(=O)N[C@@H](Cc1ccccc1)[C@@H](O)C(=O)Nc1cc(Cl)cc(Cl)c1 [Example 156] |  | 78.3% |
| CCOC(=O)COc1c(Cl)cc(NC(=O)[C@H](O)[C@H](Cc2ccccc2)NC(=O)[C@H](CC(C)C)NC(=O)[C@@H](NC(=O)[C@@H](N)CCC(=O)O)C(C)C)cc1Cl [Example 158] | 66.1% |  |
| CC(C)[C@H](NC(=O)[C@@H](N)CCC(=O)O)C(=O)N[C@@H](Cc1cc2ccccc2[nH]1)C(=O)N[C@@H](Cc1ccccc1)[C@@H](O)C(=O)Nc1cccc(C(=O)O)c1 [Example 160] | 71.3% |  |
| CC(C)C[C@H](NC(=O)[C@@H](NC(=O)[C@@H](N)CCC(=O)O)C(C)C)C(=O)N[C@@H](Cc1ccccc1)[C@@H](O)C(=O)NCc1ccc(Cl)c(Cl)c1 [Example 162] | 71.5% |  |
| CC(C)C[C@H](NC(=O)[C@@H](NC(=O)[C@@H](N)CCC(=O)O)C(C)C)C(=O)N[C@@H](Cc1ccccc1)[C@@H](O)C(=O)Nc1cc(Cl)c(OCC(=O)O)c(Cl)c1 [Example 163] | 88.3% |  |
| CC(C)[C@H](NC(=O)[C@@H](N)CCC(=O)O)C(=O)N[C@H](C(=O)N[C@@H](Cc1ccccc1)[C@@H](O)C(=O)Nc1cccc(C(=O)O)c1)c1ccccc1 [Example 164] | 64.1% |  |
| CC(C)[C@H](NC(=O)[C@@H](N)CCC(=O)O)C(=O)N[C@@H](Cc1cccc2ccccc12)C(=O)N[C@@H](Cc1ccccc1)[C@@H](O)C(=O)Nc1cccc(C(=O)O)c1 [Example 165] | 73.7% |  |
| CC(C)[C@H](NC(=O)[C@@H](N)CCC(=O)O)C(=O)N[C@@H](Cc1ccc(Cl)c(Cl)c1)C(=O)N[C@@H](Cc1ccccc1)[C@@H](O)C(=O)Nc1cccc(C(=O)O)c1 [Example 170] | 60.5% |  |
| CC(C)C[C@H](NC(=O)[C@@H](NC(=O)[C@@H](N)CNC(=O)c1ccc(O)cc1O)C(C)C)C(=O)N[C@@H](Cc1ccccc1)[C@@H](O)C(=O)Nc1cccc(C(=O)O)c1 [Example 173] |  | 86.1% |
| Cc1cc(NC(=O)[C@H](O)[C@H](Cc2ccccc2)NC(=O)[C@H](CC(C)C)NC(=O)[C@@H](NC(=O)[C@@H](N)CCC(=O)O)C(C)C)cc(C)c1OCC(=O)O [Example 178] | 73.4% |  |
| CC(C)C[C@H](NC(=O)[C@@H](NC(=O)[C@@H](N)CCC(=O)O)C(C)C)C(=O)N[C@@H](Cc1ccccc1)[C@@H](O)C(=O)Nc1cc(C(N)=O)cc(C(=O)O)c1 [Example 179] | 83.7% |  |
